{"source": "patent US6444646B1", "about": "“Use of angiotensin II type 2 receptor agonists in tissue repair” (University of Southern California, priority 1995, dated 2002)", "key": {"[1]": {"system": "intimal hyperplasia after balloon injury", "settings": "cited from earlier work"}, "[2]": {"system": "wound tissue", "settings": "applied to wound tissue; cited from earlier work"}, "[3]": {"system": "full thickness dermal wounds", "assay": "rat model for dermal repair (full thickness dermal wounds)", "format": "in vivo", "settings": "100 μg/d for 5 days", "protocol": "Female Sprague Dawley rats, 175-200 g, were obtained from Simonsen Laboratories, Gilroy, Calif. On the day of surgery, the rats received intramuscular ketamine/rompum anesthesia prior to preparation for surgery. The rats were shaved and scrubbed with betadine. Two 1.5×1.5 cm full thickness dermal wounds were created on the dorsal surface of the rat. Following excision of the skin, the size of the wound was outlined on a glass slide and the medicament was administered in 100 μl 10% low viscosity carboxymethyl cellulose (Sigma). The test materials were administered in a randomized fashion; all materials were tested at 100 μg/wound. Controls were treated with vehicle only. After administration of the materials, the rats were bandaged and allowed to recover from anesthesia. On days 1-4 after surgery, the rats were treated with an additional 100 μg of peptide formulation. At days 2, 4 ,7 and 9, the area of the skin wounds were measured under methoxyflurane anesthesia (commercially available as Metofane from Pittman-Moore, Mundelein, Ill.). The area of the wound was determined by (1) tracing the wound shape onto graph paper (1×1 mm squares); (2) cutting out the shape; (3) weighing the paper and comparing the weight with a 1.5×1.5 cm paper cutout; and (4) counting the number of squares. In addition, on days 2, 4 and 7, the area of granulation tissue was similarly determined.\nAs illustrated in FIGS. 1-2, wound closure and the formation of granulation tissue was substantially accelerated relative to the control animals when the test animals were treated with an AT2 agonist. FIG. 1 illustrates the percent of control response in wound closure relative to a vehicle-treated control; FIG. 2 illustrates the percent increase in formation of granulation tissue relative to a vehicle control."}, "[4]": {"system": "AT2 receptor", "settings": "higher affinity for AT2 than AT1; cited from earlier work"}, "[5]": {"system": "AT2 receptor", "settings": "experimental models tested (rabbit vas deferens; NG-108-15); cited from earlier work"}, "[6]": {"settings": "rat dermal wounds, relative to vehicle-treated control"}}, "note": "Read-outs that look alike come from different tables or passages of the source. Non-standard residues stand in square brackets, D forms with d. No end group written: not given here. Phe(4-NH2) = Nc1ccc(C[C@H](N)C(=O)O)cc1", "data": [{"molecule": "Cc1cc(Cn2cnc3c2C[C@@H](C(=O)O)N(C(=O)C(c2ccccc2)c2ccccc2)C3)ccc1N(C)C", "note": "[PD 123319]", "values": [{"measurement": "reduction of intimal hyperplasia", "setting": "[1]; rats, after balloon injury", "value": 73, "unit": "%"}]}, {"molecule": "CCCCc1nc(Cl)c(CO)n1Cc1ccc(-c2ccccc2-c2nn[nH]n2)cc1", "note": "[losartan]", "values": [{"measurement": "neointimal formation", "setting": "[1]; other studies, higher doses", "value": "effective"}, {"measurement": "decrease of intimal area", "setting": "[1]; rats, after balloon injury", "value": 95, "unit": "%"}, {"measurement": "neointimal formation", "setting": "[1]; similar model, low doses", "value": "ineffective"}]}, {"molecule": "Asp-Arg-Val-Tyr-Ile-His-Pro-Phe (DRVYIHPF) [angiotensin II, octapeptide present in humans and other species; known pressor agent]", "values": [{"measurement": "rate of wound healing", "setting": "[2]", "value": "significantly increases"}]}, {"molecule": "Asp-Arg-Val-Tyr-Ile-Xaa-Pro-Phe [SEQ ID NO:2] wherein Xaa is p-NH2-Phe (DRVYI[Phe(4-NH2)]PF) [p-aminophenylalanine6-AII]", "values": [{"measurement": "granulation tissue formation", "setting": "[3]; [6]", "value": "accelerated"}, {"measurement": "wound closure", "setting": "[3]; [6]", "value": "accelerated"}, {"measurement": "results in dermal repair compared with AII", "setting": "[3]; rat", "value": "comparable to AII"}, {"measurement": "affinity for AT2 relative to AT1", "setting": "[4]", "value": 1000, "unit": "×"}, {"measurement": "binding characteristics", "setting": "[5]", "value": "comparable to the AT2 antagonists"}]}, {"molecule": "CGP 42112", "values": [{"measurement": "neointimal formation", "setting": "[1]; similar model, infused perivascularly for 14 days", "value": "prevented neointimal formation"}]}]}
